# Laboratory results as given in patent US8450502B2, “Pharmaceutical compositions for inhibiting angiogenesis” (Industry-Academic Cooperation Foundation Yonsei University, priority 2008, dated 2013).
# Assays:
# [1] = system: human umbilical vein endothelial cells (HUVEC); experiment: Tube formation of human umbilical vein endothelial cells (VEGF-induced, Matrigel); assay type: cell-based; conditions: VEGF 30 ng/mL, HDNT 2.5, 5 μM, 8 hours
# Description: A 48-well plate was coated with 150 μl of Matrigel (10 mg/mL, Collaborative Biomedical Products), followed by polymerization at 37° C. for 2 hours. […] The cells were cultured in an incubator for 8 hours while observing morphological changes of the cells under a microscope.
# [2] = system: human umbilical vein endothelial cells (HUVEC); experiment: HUVEC invasion assay (Transwell, VEGF); assay type: cell-based; conditions: VEGF 30 ng/mL, HDNT 2.5, 5 μM, 18 hours
# Description: Invasion of human umbilical vein endothelial cells (HUVEC) was measured in vitro using a TRANSWELL® chamber system (Corning Costar) equipped with a polycarbonate filter. First, a lower part of the filter was coated with 10 μl of gelatin (10 mg/mL) for 1 hour, and an upper part of the filter was coated with 10 μl of MATRIGEL® (3 mg/mL) for 2 hours. […] The coated filter was placed on the TRANSWELL®, and HUVECs (1×10^5 cells/well) were inoculated on the upper part of the filter, followed by cell culture in an incubator for 18 hours. Then, the cells were fixed with 70% methanol and stained with hematoxylin/eosin. Total cells in one filter were microscopically counted to measure a degree of cell invasion (see FIG. 4).
# [3] = system: mitochondrial membrane potential of HUVECs; experiment: Determination of mitochondrial membrane potential (JC-1 staining); assay type: cell-based, human; conditions: HUVEC, HDNT 1, 5, 10 μM, 4 hours
# Description: Human umbilical vein endothelial cells (HUVEC) were seeded on a 24-well plate (2×10^4 cells/well) and cultured in EBM-2 (LONZA®) medium containing 10% fetal bovine serum (INVITROGEN®). Then, the cells were washed with PBS buffer (pH 7.4) and the culture medium was then replaced with a fresh one. The inventive compound HDNT (1, 5, 10 μM) was added to the culture medium and the cells were incubated for 4 hours. In order to measure changes of the mitochondrial membrane potential, the cells were stained with […] a lipophilic cationic probe 5,5′6,6′-tetrachloro-1,1′,3,3′-tetraethylbenzimidazole-carbocyanine iodide (JC-1, MOLECULAR PROBES®) for 15 min. The carbocyanine cationic dye forms a red fluorescent J-aggregate at a hyperpolarization membrane potential (to −140 mV), and the dye maintains a green fluorescent monomeric form at a depolarization membrane potential (to −100 mV). The stained cells were washed twice with PBS buffer. A microscopic image (×100) was obtained under an IX70 fluorescent microscope OLYMPUS®) (see FIG. 5).
# [4] = system: QP-C-expressing bacteriophage T7 (human QP-C); experiment: Competitive binding assay by phage display; conditions: competitor 200 μM, biotinylated terpestacin 5 μM immobilized
# Description: Bacteriophage T7 (NOVAGEN®) was purchased which encodes cDNA library obtained from live different human tissues (hepatoma, normal liver, dementia brain, normal brain, and normal stomach). A host cell E. coli BLT5615 was infected with Bacteriophage followed by amplification. Biotinylated terpestacin (5 μM) in TBS buffer (pH 7.5) was immobilized on a streptavidin-coated 96-well plate (Pierce Biotechnology), and then the amplified, bacteriophage T7 library (6×1.0^9 pfu/mL) was added to the terpestacin-immobilized wells. After being stirred at room temperature for 1 hour, bacteriophage T7 particles which were not hound to terpestacin were washed with TBS buffer to remove the non-bound bacteriophage T7 particles. Terpestacin-bound bacteriophage T7 particles were elated for 1 hour with addition of terpestacin (100 μM) dissolved in TBS buffer. The elated bacteriophage T7 particles were infected into E. coli strain BLT5615 cultured on LB agar medium. The thus-formed bacteriophage T7 plaques were isolated and DNA sequences were analyzed to obtain bacteriophage expressing a ubiquinone-binding protein (QP-C) of the mitochondria complex III.
# QP-C-expressing bacteriophage T7 was infected into a host cell E. coli BLT5615, followed by amplification. […] The thus-formed bacteriophage plaques were counted and the results were compared between the treated group and the control group (see FIG. 6).
# [5] = target: T1, mitochondrial protein QP-C (Homo sapiens, UniProt P14927); experiment: Competitive binding assay by fluorescent staining in HUVECs; assay type: cell-based; conditions: for Inhibition of binding between coumarin-terpestacin and QP-C (blue fluorescence in the cytoplasm): HUVEC, pretreatment 24 hours with HDNT 10 μM or terpestacin 30 μM, coumarin-terpestacin 20 μM 2 hours
# T1 construct: endogenous in cells; host or cells: HUVEC
# T1 sequence (P14927 1-111): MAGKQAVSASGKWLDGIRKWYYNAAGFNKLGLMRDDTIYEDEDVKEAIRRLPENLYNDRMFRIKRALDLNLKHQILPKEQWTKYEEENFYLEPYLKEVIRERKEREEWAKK
# Description: Human umbilical vein endothelial cells (HUVEC) were seeded on a 24-well plate (2×10^4 cells/well) and cultured in EBM-2 (LONZA®) medium containing 10% fetal bovine serum (INVITROGEN®). Then, the cells were washed with PBS buffer (pH 7.4), and the culture medium was replaced with a fresh one. The inventive compound HDNT (10 μM) or the compound terpestacin (30 μM) binding to QP-C was added to each well and the cells were incubated for 24 hours. A fluorescent dye coumarin (20 μM) and coumarin-conjugated terpestacin (20 μM) were each added to the control group and the treated group, followed by incubation for another 2 hours. The cells were washed with PBS buffer. Fluorescent intensity was observed under an IX70 fluorescent microscope (OLYMPUS®) and a microscopic image was taken (see FIG. 7).
# purified QP-C protein = target: T2, purified QP-C protein (Homo sapiens, UniProt P14927); experiment: Competitive binding assay by surface plasmon resonance; conditions: compound 25 μM, QP-C protein 25 μM, biotinylated terpestacin 100 μM immobilized
# T2 construct: GST (N, cleaved yes); made in house; host or cells: E. coli BL21
# T2 sequence (P14927 1-111): T1 sequence (P14927 1-111)
# Description: Using, liver tissue cDNA library as a template, a QP-C gene (GENBANK® Accession No. NM_006294 was amplified by polymerase chain reaction (PCR). Sequences of PCR primers used herein are as follows: forward primer 5′-[…]-3′, and reverse primer 5′-[…]-3′. The QP-C gene was inserted into a multi cloning site (EcoRI/XhoI site) of a pGEX-4T1 vector (Amersham Pharmacia) which was then transformed into E. coli BL21 for protein expression, IPTG (1 mM) was added to the LB culture OD600=0.6) of the transformed bacteria, followed by shaking culture at 37° C. for 4 hours. The cells were disrupted using a sonicator and the expressed GST/QP-C fusion protein was purified by addition of glutathione agarose heads (SIGMA®). In order to remove a GST portion of the fusion protein, thrombin (Amersham Pharmacia) was added thereto at room temperature, followed by overnight stirring. Only the supernatant containing the QP-C protein was recovered by centrifugation (see FIG. 2). […]
# The binding sensorgram containing association and dissociation curves was obtained by BIACORE® 2000, and 50 mM NaOH (5 μl) was poured on the sensor chip surface to result in regeneration. […] A surface plasmon resonance response curve was analyzed using BIACORE® Evaluations software, version 3.1 (see FIG. 8).
# [6] = system: human umbilical vein endothelial cells (HUVEC); conditions: cited from earlier work
# [7] = system: embryonic chick chorioallantoic membrane (CAM); conditions: cited from earlier work
# HIV = conditions: cited from earlier work
SMILES,VEGF-mediated tube formation of HUVECs [1],VEGF-mediated invasion of HUVECs [2],Change of mitochondrial membrane potential (JC-1 red/green fluorescence) [3],Inhibition of binding between biotinylated terpestacin and QP-C-expressing bacteriophage T7 [4],Inhibition of binding between coumarin-terpestacin and QP-C (blue fluorescence in the cytoplasm) [5],Inhibition of the binding between biotin-terpestacin and QP-C protein (purified QP-C protein),"Fluorescence staining of HUVECs ([5]; 20 μM, 2 hours)",inhibition at 25 µM (purified QP-C protein; read-out: Inhibition of the binding between biotin-terpestacin and QP-C protein),Angiogenic responses of HUVEC in vitro [6],Angiogenesis of embryonic chick chorioallantoic membrane (CAM) in vivo [7],Formation of syncytium during HIV infections (HIV)
"O=C1Sc2ccc(S(=O)(=O)Nc3ccc(O)c4ccccc34)c3cccc1c23 [HDNT, 6-((1-hydroxynaphthalen-4-ylamino)dioxysulfone)-2H-naphtho[1,8-bc]thiophen-2-one]",inhibited VEGF-mediated tube formation and invasion of HUVECs in a concentration-dependent manner,inhibited VEGF-mediated tube formation and invasion of HUVECs in a concentration-dependent manner,disrupts the mitochondrial membrane potential,effectively inhibited,blue fluorescence was significantly decreased,40%,–,–,–,–,–
C/C1=C/CC/C(C)=C/CC2(C)C(=O)C(O)=C(C(C)COC(=O)CCCCCNC(=O)CCCCCNC(=O)Cc3c(C)c4ccc(N)cc4oc3=O)C2C/C=C(\C)C(O)CC1 (stereo not shown) [coumarin-terpestacin],–,–,–,–,–,–,intense blue fluorescence in the cytoplasm,–,–,–,–
C/C1=C\C[C@]2(C)C(=O)C(O)=C([C@H](C)CO)[C@H]2C/C=C(\C)[C@@H](O)CC/C(C)=C/CC1 [terpestacin],–,–,–,significantly inhibited,significant attenuation of blue fluorescence,–,–,≤ 60%,strongly inhibits angiogenic responses,strongly inhibits angiogenesis,inhibit the formation of syncytium
